Experimental data taken from the supplement of paper PMC8882468.
± gives the standard deviation of the averaged measurements.

How the values were obtained:
Experiment in all cases: CTG-3D luminescence at 96 h relative to day-0 seeding control (ratio to day 0); higher = more growth / less cytotoxicity; PDxO 3D drug screen, 96 h, CTG-3D normalised to day-0 seeding control.
HCI-002 = tested on: HCI-002 (organoid from a triple-negative breast cancer xenograft)
HCI-008 = tested on: HCI-008 (organoid from a HER2-enriched breast cancer xenograft)
HCI-017.E2 = tested on: HCI-017.E2 (organoid from an ER-positive breast cancer xenograft)
HCI-023 = tested on: HCI-023 (organoid from a triple-negative breast cancer xenograft)
HCI-024 = tested on: HCI-024 (organoid from a breast cancer xenograft)

CCN1CCN(Cc2ccc(Nc3ncc(F)c(-c4cc(F)c5nc(C)n(C(C)C)c5c4)n3)nc2)CC1 [abemaciclib]
CTG-3D luminescence at 96 h
Conditions	12.5 pM	0.00025 µM	0.005 µM	0.1 µM	1 µM	10 µM	100 µM	625 fM
HCI-002, days in culture: 62	2.66	2.58	3.14	1.73	1.79	0.212	0.0177	2.98
HCI-002, days in culture: 82	3.15	2.81	2.24	1.98	1.8	0.0326	0.0147	2.83
HCI-002, days in culture: 91	3.78	3.22	2.89	1.68	2.17	1.95	0.0268	3.9
HCI-002, days in culture: 191	2.72	2.89	3.01	1.89	2.34	0.748	0.018	2.57
HCI-002, days in culture: 209	2.24	2.35	2.4	1.36	1.49	0.0253	0.014	2.36
HCI-002, days in culture: 227	5.48	5.17	4.76	2.91	3.24	0.0659	0.0285	5.64
HCI-008, days in culture: 228	1.42 ± 0.18	1.63 ± 0.16	1.38 ± 0.49	1.89 ± 0.48	1.86 ± 0.65	1.53 ± 0.075	0.0137 ± 0.0018	1.79 ± 0.36
HCI-008, days in culture: 244	1.57	2.05	1.87	2.13	2.12	2.51	0.0231	2.52
HCI-017.E2, days in culture: 85	2.84	2.45	2.5	2.52	2.03	1.81	0.0118	3.16
HCI-023, days in culture: 111	1.62	1.22	1.3	1.11	0.658	0.377	0.00981	1.51
HCI-023, days in culture: 128	1.77 ± 0.48	1.494 ± 0.0079	1.47 ± 0.046	1.52 ± 0.47	0.984 ± 0.17	1.15 ± 0.29	0.0139 ± 0.0041	1.84 ± 0.45
HCI-024, days in culture: 105	1.51	1.33	1.28	1.48	1.25	0.994	0.0179	1.87
HCI-024, days in culture: 122	2.26	2.43	1.7	1.89	1.62	2.1	0.0233	3.21
HCI-024, days in culture: 163	1.45	2.01	1.71	2.45	1.94	1.38	0.0196	1.89

HCI-017.E2
Conditions	CTG-3D luminescence at 96 h
12.5 pM	1.858 ± 0.013
0.00025 µM	1.97 ± 0.15
0.005 µM	2.083 ± 0.014
0.1 µM	2.11 ± 0.035
1 µM	2.01 ± 0.16
10 µM	1.5 ± 0.023
100 µM	0.00884 ± 0.0013
625 fM	2.33 ± 0.15

C=CCn1c(=O)c2cnc(Nc3ccc(N4CCN(C)CC4)cc3)nc2n1-c1cccc(C(C)(C)O)n1 [adavosertib]
CTG-3D luminescence at 96 h
Conditions	12.5 pM	0.00025 µM	0.005 µM	0.1 µM	1 µM	10 µM	100 µM	625 fM
HCI-002, days in culture: 62	3.1	2.91	2.73	2.4	1.32	0.225	0.324	2.86
HCI-002, days in culture: 82	2.82	2.68	2.02	2.52	1.53	0.198	0.134	2.69
HCI-002, days in culture: 91	3.69	3.67	3.79	3.35	1.82	0.274	0.495	4.31
HCI-002, days in culture: 191	2.59	2.7	2.5	2.3	1.76	0.247	0.507	2.47
HCI-002, days in culture: 209	2.27	2.42	2.11	1.89	1.5	0.217	0.128	2.35
HCI-002, days in culture: 227	6.7	6.34	6.07	6.24	2.13	0.312	0.123	6.55
HCI-008, days in culture: 228	2.01 ± 0.21	1.96 ± 0.074	1.71 ± 0.41	1.89 ± 0.26	0.689 ± 0.11	0.46 ± 0.17	0.251 ± 0.017	1.88 ± 0.45
HCI-008, days in culture: 244	1.42	1.98	1.93	1.91	0.808	0.555	0.252	2.27
HCI-017.E2, days in culture: 85	3.02	3.07	2.89	2.57	2.45	1.09	1.58	2.77
HCI-023, days in culture: 111	1.63	1.12	1.18	1.1	0.554	0.112	0.0325	1.39
HCI-023, days in culture: 128	1.68 ± 0.18	1.92 ± 0.36	1.34 ± 0.2	1.47 ± 0.25	0.441 ± 0.1	0.148 ± 0.045	0.06302 ± 0.00018	1.85 ± 0.45
HCI-024, days in culture: 105	1.61	1.66	1.14	1.44	0.852	0.412	0.179	2.06
HCI-024, days in culture: 122	1.86	2.07	1.99	2.01	1.38	0.414	0.145	2.52
HCI-024, days in culture: 163	2.11	2.21	1.86	2.44	1.82	0.466	0.225	2.56

HCI-017.E2
Conditions	CTG-3D luminescence at 96 h
12.5 pM	1.84 ± 0.1
0.00025 µM	2.24 ± 0.056
0.005 µM	2.2 ± 0.46
0.1 µM	2.13 ± 0.035
1 µM	1.78 ± 0.26
10 µM	1.28 ± 0.21
100 µM	1.51 ± 0.054
625 fM	2.15 ± 0.3
